For three compounds, IC50 and viability, T/C results are on record in PubChem BioAssay AID1963832 (Molecular Pharmacology Branch, DTP, NCI, 2024).

Values joined by “and” are separate entries in the source; they are usually repeats but may differ in a detail not shown here. Identical values can stand only once.

The experiment has as its system 885724-159-R-J1-PDC complex spheroid viability. Nature of the experiment: Anticancer human tumor 885724-159-R-J1-PDC patient-derived pancreatic adenocarcinoma cell line growth inhibition [POLQ]. The conditions noted are these: for viability, T/C: stronger effect = lower value. As for the experimental part: Multicellular complex tumor spheroid response to Polymerase (POL) inhibitors (novobiocin, ART-558, RP6685) in combination with a variety of drugs and investigational agents in selected tumor cell lines
The POL inhibitors (novobiocin, ART-558, and RP6685) were evaluated both individually and in combination with standard of care and investigational anticancer small molecules within a complex spheroid model of solid tumors. . Complex spheroids include a stromal component modeled by human endothelial cells (HUVEC) and fibroblasts modeled by human mesenchymal stem cells (MSCs). The concentration ranges selected for each drug and investigational agent were based upon clinically achievable concentrations if the clinical Cmax of the agent was known.
Compounds. The drugs and investigational agents: novobiocin (NSC847541), ART-558 (NSC835418), RP-6685 (NSC848927), peposertib (NSC802822), ceralasertib (NSC780249), elimusertib (NSC800525), camonsertib (NSC841442), AZD-1390 (NSC803789), olaparib (NSC753686), talazoparib (NSC767125), rucaparib (NSC756644), sotorasib (NSC818433), MRTX-1133 (NSC836407), SN-38 (NSC673596), topotecan (NSC609699), epotoside (NSC141540), doxorubicin (NSC123127), gemcitabine (NSC613327), 5-fluorouracil (NSC19893), paclitaxel (NSC125973), vemurafenib (NSC761431), MSA-2 (NSC828583), SN-011 (NSC837082), adavosertib (NSC754352), prexasertib (NSC758257), carboplatin (NSC241240) and oxaliplatin (NSC266046), were obtained from the National Cancer Institute (NCI) Developmental Therapeutics Program Chemical Repository (21). The FDA-approved anticancer drug set is available from the Developmental Therapeutics Program at https://dtp.cancer.gov/organization/dscb/obtaining/. […] The stock solutions were prepared in dimethyl sulfoxide (DMSO, Sigma-Aldrich, St. Louis, MO, cat. D2650), except for the platinum compounds which were prepared in saline (Quality Biological, Gaithersburg, MD, cat. 114-055-101), at 800-fold the tested concentration and stored at -70 degrees C prior to their use. All drugs and investigational agents were tested over a range starting from a high concentration at or near the clinical Cmax and decreasing in half-log increments. If the clinical Cmax for an agent had not been determined, the highest concentration tested was 10 microM, except for SN-38, which was tested at a high concentration of 1 microM.
Cell Culture. All cells were maintained in an incubator at 37 degrees C and 5% CO2 with 95% humidity. The PDC lines were cultured according to standard operating procedures established by the NCI PDMR (https://pdmr.cancer.gov). Table 3 of the manuscript, lists the cell lines along with the number of the three cell types plated to form the mct-spheroids and media for tumor cell growth. After thawing, all PDC lines, except 997537-175-T-J1-PDC and 415267-285-R-J2-PDC, were cultured in Matrigel-coated flasks prepared with a working solution of 1X Ham's F-12 nutrient mix, without supplementation (Thermo Fisher Scientific, cat. 11765054), 100 U/mL penicillin-streptomycin (Thermo Fisher Scientific, cat. 15140122), and 2.5% Matrigel (Corning Inc., Corning, NY, cat. 354248) for the first three passages. The two PDC lines 997537-175-T-J1-PDC and 415267-285-R-J2-PDC were cultured on uncoated flasks. The 857933-349-R-J2-PDC line was cultured in 6C/Colon 1B media containing advanced DMEM/F-12 (Thermo Fisher Scientific, cat. 12634028), 10 mM HEPES (Thermo Fisher Scientific, cat. 15630080), 1X GlutaMAX supplement (Thermo Fisher Scientific, cat. 35050061), 0.1 mg/mL primocin (InvivoGen, San Diego, CA, cat. ant-pm-2), 10% defined fetal bovine serum, heat inactivated (HyClone Laboratories Inc., Logan, UT, cat. SH30070.03HI), 50% L-WRN conditioned media (ATCC, cat. CRL-3276), 1.25 mM N-Acetyl-L-cysteine (Sigma-Aldrich, cat. A9165), 10 mM nicotinamide (Sigma-Aldrich, cat. N0636), 1X B-27 supplement (Thermo Fisher Scientific, cat. 17504044), 1X N-2 supplement (Thermo Fisher Scientific, cat. […]
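Note: spheroids exposed to compounds for 7 days.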

In the case of `O=c1[nH]cc(F)c(=O)[nH]1` + Cc1cccc(N(C)C(=O)C2C(O)CCN2c2nc(C)cc(C(F)(F)F)c2C#N)c1, the IC50 was greater than 10 µM (curve of first compound, second compound 0.0316 µM); greater than 10 µM (curve of first compound, second compound 0.1 µM); greater than 10 µM (curve of first compound, second compound 0.316 µM); greater than 10 µM (curve of first compound, second compound 1 µM); greater than 10 µM (curve of first compound, second compound 3.16 µM); greater than 10 µM (curve of first compound, second compound 10 µM). Further, the viability, T/C by setting is: (second compound 0.0316 µM, first compound 0.0316 µM) 98.5%; (second compound 0.0316 µM, first compound 0.1 µM) 101%; (second compound 0.0316 µM, first compound 0.316 µM) 95.8%; (second compound 0.0316 µM, first compound 1 µM) 100%; (second compound 0.0316 µM, first compound 3.16 µM) 90.2%; (second compound 0.0316 µM, first compound 10 µM) 76.4%. The viability, T/C reads like this: (second compound 0.1 µM, first compound 0.0316 µM) 97.7%; (second compound 0.1 µM, first compound 0.1 µM) 104%; (second compound 0.1 µM, first compound 0.316 µM) 98.7%; (second compound 0.1 µM, first compound 1 µM) 106%; (second compound 0.1 µM, first compound 3.16 µM) 90%; (second compound 0.1 µM, first compound 10 µM) 74.7%. In addition, the viability, T/C runs as follows: (second compound 0.316 µM, first compound 0.0316 µM) 98.7%; (second compound 0.316 µM, first compound 0.1 µM) 88.6%; (second compound 0.316 µM, first compound 0.316 µM) 97.5%; (second compound 0.316 µM, first compound 1 µM) 99%; (second compound 0.316 µM, first compound 3.16 µM) 87.5%; (second compound 0.316 µM, first compound 10 µM) 71.9%. Moreover, the viability, T/C runs as follows: (second compound 1 µM, first compound 0.0316 µM) 111%; (second compound 1 µM, first compound 0.1 µM) 107%; (second compound 1 µM, first compound 0.316 µM) 101%; (second compound 1 µM, first compound 1 µM) 98.2%; (second compound 1 µM, first compound 3.16 µM) 92%; (second compound 1 µM, first compound 10 µM) 76.7%. For the same compound, the viability, T/C is, setting by setting: (second compound 3.16 µM, first compound 0.0316 µM) 114%; (second compound 3.16 µM, first compound 0.1 µM) 96.2%; (second compound 3.16 µM, first compound 0.316 µM) 88%; (second compound 3.16 µM, first compound 1 µM) 100%; (second compound 3.16 µM, first compound 3.16 µM) 87.3%; (second compound 3.16 µM, first compound 10 µM) 71.7%. For the same compound, the viability, T/C reads like this: (second compound 10 µM, first compound 0.0316 µM) 99%; (second compound 10 µM, first compound 0.1 µM) 101%; (second compound 10 µM, first compound 0.316 µM) 89.8%; (second compound 10 µM, first compound 1 µM) 89.4%; (second compound 10 µM, first compound 3.16 µM) 92.9%; (second compound 10 µM, first compound 10 µM) 78.6%.

For `COc1ccc([C@@H](O)c2cc(-c3ncnc4cc(N5CCOCC5)ccc34)c(F)cc2Cl)nn1`, the viability, T/C is 94% and 96% and 96.8% (compound 0.0316 µM); 79.5% and 83.5% and 87.4% (compound 0.1 µM); 86.8% and 78% and 76% (compound 0.316 µM); 71.7% and 68.9% and 70.9% (compound 1 µM); 59% and 58.1% and 55% (compound 3.16 µM); 35.5% and 33% and 38.2% (compound 10 µM). Further, the IC50 (curve of compound) is 4.86 µM and 4.08 µM and 4.45 µM.

In the case of `Cc1cccc(N(C)C(=O)C2C(O)CCN2c2nc(C)cc(C(F)(F)F)c2C#N)c1` (stereo unspecified), the viability, T/C is 96.2% [middle of 13 runs] (compound 0.0316 µM); 97.6% [middle of 13 runs] (compound 0.1 µM); 102% [middle of 13 runs] (compound 0.316 µM); 100% [middle of 13 runs] (compound 1 µM); 99.2% [middle of 13 runs] (compound 3.16 µM). Moreover, the half-inhibitory concentration (IC50) (compound alone, run of 11/27/2023) is greater than 10 µM and the IC50 (compound alone, run of 12/05/2023) was greater than 10 µM.
